Data on 13 compounds can be found in patent US20220112204A1, “SUBSTITUTED DIHYDROPYRANOPYRIMIDINE COMPOUNDS AS KRAS INHIBITORS” (ACCUTAR BIOTECHNOLOGY INC., priority 2020, published 2022).

Bounds are passed on as bounds.

The test system of experiment [1] is phospho-ERK1/2 (Thr202/Tyr204) in MIA PaCa-2 cell line. The experiment can be described thus: pERK and ERK Western blot analysis, MIA PaCa-2. In kind it is cell-based. The conditions noted are these: Homo sapiens; MIA PaCa-2 cell line, 4 hours after incubation; read-out: 2D pERK IC50. As for the experimental part:
MIA PaCa-2 (ATCC), NCI-H358 (ATCC), NCI-H23 (ATCC), SW837 and A549 (ATCC) cells were plated in 24-well plates at 2×10^5cells/well in RPMI growth medium containing 10% FBS and 1× Penicillin Streptomycin. They were then incubated at 37° C. overnight. The following day, the test compound was administered to the cells by using 1000× compound stock solution prepared in DMSO at various concentrations. After administration of the compound, the cells were then incubated at 37° C. for 4 hours. Upon completion, the cells were washed with PBS and protein was collected in Laemmli sample buffer (1×; VWR International). Proteins in cell lysate were separated by SDS-PAGE and transferred to Odyssey nitrocellulose membranes (Licor) with iblot® dry blotting transfer system (ThermoFisher). Nonspecific binding was blocked by incubating membranes with Intercept Blocking Buffer (Licor) for 1 hour at room temperature with gentle shaking. The membranes were then incubated overnight at 4° C. with primary antibodies rabbit anti-phospho p44/42 MAPK (Erk1/2) (1:2,000, Cell Signaling, 4370) and mouse anti-p44/42 MAPK (Erk1/2) (1:1,000, Cell Signaling, 4696) diluted in Intercept Blocking Buffer containing 0.1% Tween 20. After washing 3 times with TBS-T, the membranes were incubated with IRDye® 800CW goat anti-rabbit IgG (1:20,000, Licor) or IRDye® 680CW goat anti-mouse IgG (1:20,000, Licor) for 1 hour. After TBS-T washes, membranes were rinsed in TBS and scanned on Odyssey® CLx Imaging System (Licor). The bands were quantified using Image Studio™ Software (Licor).
(In western blotting, separated proteins are transferred to a membrane and probed.)

Experiment [2] concerns the target T1, KRAS-G12C mutant (Homo sapiens, UniProt P01116, G12C). Nature of the experiment: Gel shift assay (SDS-PAGE) for covalent modification of KRAS G12C. In kind it is binding. As to conditions: 0.5 μM compound, 1 μM GDP-bound KRAS G12C, 25° C., 5 minutes, shift indicative of covalent cysteine conjugation. The protocol:
0.5 μM compounds were incubated with 1 μM GDP-bound untagged KRAS (G12C or wild type) proteins at 25° C. for 5 minutes in 40 μl reaction buffer (50 mM Tris, pH 7.5, 100 mM NaCl, 1 mM MgCl2, 1 mM DTT). The reactions were quenched with 10 μI SDS-PAGE sample loading buffer (250 mM Tris-HCl, pH 6.8, 10% SDS, 0.5% bromophenol blue, 50% glycerol and 50 mM DTT) and then analyzed via SDS-PAGE using 4%-20% gradient polyacrylamide gel followed by Coomassie blue stain.
FIG. 1 illustrates mobility change of KRAS-G12C mutant or wild type proteins on SDS-PAGE after 5 minutes of coincubation at 25° C. with exemplary compounds of the present disclosure, indicative of covalent cysteine conjugation.
Table 3 summarizes molecular weight shift of KRAS-G12C mutant on SDS-PAGE after 5 mins of coincubation at 25° C. with exemplary compounds of the present disclosure, indicative of covalent cysteine conjugation.

Experiment [3] has as its target T1, KRAS-G12C mutant. Nature of the experiment: TR-FRET assay of SOS1-assisted KRAS GDP/GTP exchange. In kind it is biochemical. The protocol: GDP form of 6*His tagged KRAS-G12C was diluted to 40 nM and incubated with 8 nM LanthaScreen™ Elite Terbium-anti-HIS Antibody (Thermo, catalog number PV5863) in reaction buffer containing 20 mM Tris, pH 7.5, 100 mM NaCl, 1 mM DTT, 0.1% Tween20, 0.05% BSA, 2% DMSO, 1 mM MgCl2. After 1 hour-incubation at 4° C., proteins were placed in 384 well plate (PerkinElmer, PROXIPLATE-384 PLUS). Then compounds with different concentrations were added to the proteins. BODIPY labeled GTP (Thermo, catalog number G12411) and SOS-1 (or reaction buffer as control) were then added to reactions at 200 nM and 1 μM to trigger the exchange of GDP to BODIPY-GTP. TR-FRET emission signals were determined at 520 nm and 620 nm on a Envision® Multilabel Plate Reader (PerkinElmer) using a 337 nm laser as light source. All data were analyzed and plotted using Graph Pad Prism software (version 8.0.1). Raw TR-FRET data were converted to percentage of inhibition (relative to DMSO) using the following equations: […]
b) For a given test compound concentration X:
Signal (X)=Emission ratio (SOS-1 & GTP)—Emission ratio (buffer & GTP)
c) Percentage of inhibition at concentration X=[1−Signal(X)/Signal (DMSO)]*100%
The […] values were determined by nonlinear regression of plots of [inhibitor] vs. percentage of inhibition with variable slope. Table 4 summarizes inhibition of SOS1-assisted GDP/GTP exchanging activity of KRAS-G12C mutant with exemplary compounds of the present disclosure.
A general note: In TR-FRET formats the signal depends on donor and acceptor labels being close together.

With `C=C(F)C(=O)N1CCN(c2nc(OCC34CCCN3CCC4)nc3c2CO[C@@H](c2cccc4c2CCCC4)C3)C[C@@H]1CC#N` [Compound 68, 2-((S)-1-(2-fluoroacryloyl)-4-((R)-2-((tetrahydro-1H-pyrrolizin-7a(5H)-yl)methoxy)-7-(5,6,7,8-tetrahydronaphthalen-1-yl)-7,8-dihydro-5H-pyrano[4,3-d]pyrimidin-4-yl)piperazin-2-yl)acetonitrile], the half-maximal inhibitory concentration (IC50) (as a rule, the concentration needed to halve the response being measured) in experiment [1] is more than 100 nM; against KRAS-G12C mutant [3], 2540 nM. Moreover, at KRAS-G12C mutant [2], the “KRAS-G12C molecular weight shift” value is listed as “No”.
The corresponding values for `C=C(F)C(=O)N1CCN(c2nc(OC[C@@H]3CCCN3C)nc3c2CO[C@@H](c2cccc4cccc(Cl)c24)C3)C[C@@H]1CC#N` [Compound 19, 2-((S)-4-((R)-7-(8-chloronaphthalen-1-yl)-2-(((S)-1-methylpyrrolidin-2-yl)methoxy)-7,8-dihydro-5H-pyrano[4,3-d]pyrimidin-4-yl)-1-(2-fluoroacryloyl)piperazin-2-yl)acetonitrile] are more than 100 nM, 80800 nM and “No”.
The corresponding values for `C=C(F)C(=O)N1CCN(c2nc(OCC34CCCN3CCC4)nc3c2CO[C@@H](c2cccc4cccc(C)c24)C3)C[C@@H]1CC#N` (single isomer, unassigned) [Compound 57] are more than 100 nM, 4860 nM and “No”.
Turning to `C=C(F)C(=O)N1CCN(c2nc(OC[C@@H]3CCCN3C)nc3c2COC(c2cccc4ccccc24)C3)C[C@@H]1CC#N` (stereo partly drawn) [Compound 1, 2-((2S)-1-(2-fluoroacryloyl)-4-(2-(((S)-1-methylpyrrolidin-2-yl)methoxy)-7-(naphthalen-1-yl)-7,8-dihydro-5H-pyrano[4,3-d]pyrimidin-4-yl)piperazin-2-yl)acetonitrile], the results for the 50% inhibitory concentration (IC50) (in experiment [1]; at KRAS-G12C mutant [3]) were more than 100 nM and 698 nM, respectively.
For `C=CC(=O)N1CCN(c2nc(OC[C@@H]3CCCN3C)nc3c2CO[C@@H](c2cccc4cccc(Cl)c24)C3)C[C@@H]1CC#N` [Compound 6, 2-((S)-1-acryloyl-4-((R)-7-(8-chloronaphthalen-1-yl)-2-(((S)-1-methylpyrrolidin-2-yl)methoxy)-7,8-dihydro-5H-pyrano[4,3-d]pyrimidin-4-yl)piperazin-2-yl)acetonitrile], the IC50 is more than 100 nM in experiment [1] and 7130 nM against KRAS-G12C mutant [3].
On to `C=CC(=O)N1CCN(c2nc(OC[C@@H]3CCCN3C)nc3c2CO[C@@H](c2cccc4ccccc24)C3)C[C@@H]1CC#N` [Compound 5, 2-((S)-1-acryloyl-4-((R)-2-(((S)-1-methylpyrrolidin-2-yl)methoxy)-7-(naphthalen-1-yl)-7,8-dihydro-5H-pyrano[4,3-d]pyrimidin-4-yl)piperazin-2-yl)acetonitrile], for which the IC50 was more than 100 nM in experiment [1] and 2150 nM against KRAS-G12C mutant [3].
For `C=CC(=O)N1CCN(c2nc(OC[C@@H]3CCCN3C)nc3c2COC(c2cccc4cccc(Cl)c24)C3)C[C@@H]1CC#N` (stereo partly drawn) [Compound 3, 2-((2S)-1-acryloyl-4-(7-(8-chloronaphthalen-1-yl)-2-(((S)-1-methylpyrrolidin-2-yl)methoxy)-7,8-dihydro-5H-pyrano[4,3-d]pyrimidin-4-yl)piperazin-2-yl)acetonitrile], the IC50 in experiment [1] was 1 to 10 nM; at KRAS-G12C mutant [3], 29 nM.
Turning to `C=C(F)C(=O)N1CCN(c2nc(OCC3(CN(C)C)CC3)nc3c2COC(c2cccc4cccc(Cl)c24)C3)C[C@@H]1CC#N` (stereo partly drawn) [Compound 70, 2-((2S)-4-(7-(8-chloronaphthalen-1-yl)-2-((1-((dimethylamino)methyl)cyclopropyl)methoxy)-7,8-dihydro-5H-pyrano[4,3-d]pyrimidin-4-yl)-1-(2-fluoroacryloyl)piperazin-2-yl)acetonitrile], the half-maximal inhibitory concentration (IC50) in experiment [1] was 10 to 100 nM; against KRAS-G12C mutant [3], 303 nM. Besides, the “KRAS-G12C molecular weight shift” value on KRAS-G12C mutant [2] is “Yes”.
Take `C=C(F)C(=O)N1CCN(c2nc(OCC34CCCN3CCC4)nc3c2CO[C@@H](c2cccc4cccc(Cl)c24)C3)C[C@@H]1CC#N` (single isomer, unassigned) [Compound 54]: the 50% inhibitory concentration (IC50) in experiment [1] is more than 100 nM; at KRAS-G12C mutant [3], 2350 nM. The “KRAS-G12C molecular weight shift” value at KRAS-G12C mutant [2] is on record as “No”.
Take `C=C(F)C(=O)N1CCN(c2nc(OCC34CCCN3CCC4)nc3c2[C@@H](C)O[C@@H](c2cccc4c2CCCC4)C3)C[C@@H]1CC#N` [Compound 60, 2-((S)-1-(2-fluoroacryloyl)-4-((5R,7R)-5-methyl-2-((tetrahydro-1H-pyrrolizin-7a(5H)-yl)methoxy)-7-(5,6,7,8-tetrahydronaphthalen-1-yl)-7,8-dihydro-5H-pyrano[4,3-d]pyrimidin-4-yl)piperazin-2-yl)acetonitrile]: the IC50 in experiment [1] is more than 100 nM; at KRAS-G12C mutant [3], 4200 nM. The “KRAS-G12C molecular weight shift” value at KRAS-G12C mutant [2] is listed as “No”.
The corresponding values for `C=C(F)C(=O)N1CCN(c2nc(OCC34CCCN3CCC4)nc3c2COC(c2cccc4c2CCCC4)C3)C[C@@H]1CC#N` (stereo partly drawn) [Compound 67, 2-((2S)-1-(2-fluoroacryloyl)-4-(2-((tetrahydro-1H-pyrrolizin-7a(5H)-yl)methoxy)-7-(5,6,7,8-tetrahydronaphthalen-1-yl)-7,8-dihydro-5H-pyrano[4,3-d]pyrimidin-4-yl)piperazin-2-yl)acetonitrile] are 10 to 100 nM, 36 nM and “Yes”.
Take `C=CC(=O)N1CCN(c2nc(OC[C@@H]3C[C@H](F)CN3C)nc3c2CO[C@@H](c2cccc4ccccc24)C3)C[C@@H]1CC#N` [Compound 10, 2-((S)-1-acryloyl-4-((R)-2-(((2S,4S)-4-fluoro-1-methylpyrrolidin-2-yl)methoxy)-7-(naphthalen-1-yl)-7,8-dihydro-5H-pyrano[4,3-d]pyrimidin-4-yl)piperazin-2-yl)acetonitrile]: the IC50 is more than 100 nM in experiment [1] and 13900 nM against KRAS-G12C mutant [3].
In the case of `C=C(F)C(=O)N1CCN(c2nc(OCC34CCCN3CCC4)nc3c2[C@@H](C)O[C@@H](c2cccc4cccc(C)c24)C3)C[C@@H]1CC#N` [Compound 65, 2-((S)-1-(2-fluoroacryloyl)-4-((5R,7R)-5-methyl-7-(8-methylnaphthalen-1-yl)-2-((tetrahydro-1H-pyrrolizin-7a(5H)-yl)methoxy)-7,8-dihydro-5H-pyrano[4,3-d]pyrimidin-4-yl)piperazin-2-yl)acetonitrile], the IC50 is more than 100 nM in experiment [1] and 11600 nM against KRAS-G12C mutant [3]. On KRAS-G12C mutant [2], the “KRAS-G12C molecular weight shift” value is “No”.
